Experimental data from PMC11351612, “Heteronuclear Complexes with Promising Anticancer Activity against Colon Cancer” (Biomedicines, 2024).

How the values were obtained:
[1] = biological target: T1, bovine serum albumin (BSA) (Bos taurus, UniProt P02769); assay: BSA UV-vis absorption superposition (static vs dynamic quenching); assay type: binding; settings: compound 24 μM, absorption spectra superposition
T1 construct: purchased Sigma Aldrich (St. Louis, MO, USA)
Procedure: Furthermore, examination of the absorption spectra of the fluorophores can be used as a means of characterising static and dynamic quenching. Given the premise that static quenching entails complex formation, alterations in the absorption spectra of BSA are to be anticipated. Conversely, since dynamic quenching only affects the excited states of BSA, its absorption spectra would remain unaltered. The absorption spectra of BSA were recorded in the absence and presence of each compound at a concentration of 24 μM, as well as the absorption spectrum of the compound at the same concentration. A mathematical superposition of the spectrum of BSA and the spectrum of the compounds was calculated.

[2] = tested on: Caco-2/TC7 cells; assay: MTT cell proliferation assay, Caco-2/TC7; assay type: cell-based, human; settings: 72 h, mean ± SE of at least three determinations
Procedure: Cell culture. Human colon cancer Caco-2 cells (PD7 and TC7 clones) were kindly provided by Dr. Edith Brot-Laroche (Université Pierre et Marie Curie-Paris 6, UMR S 872, Les Cordeliers, Lyon, France) and grown in Dulbecco’s Modified Eagles medium (DMEM) (Gibco Invitrogen, Paisley, UK) supplemented with 20% foetal bovine serum (FBS), 1% non-essential amino acids, 1% streptomycin (1000 μg/mL), 1% penicillin (1000 μg/mL), and 1% amphotericin (250 U/mL). Caco-2 cells were maintained at 37 °C in a humidified atmosphere at 5% CO2.
Cell proliferation assay. Cell proliferation was measured using the 3-(4,5-dimethyl-2-thiazoyl)-2,5-diphenyltetrazolium bromide (MTT) assay, as previously described. Caco-2/TC7 cells were seeded in a 96-well plate at a density of 4000 cells/well and grown for 24 h before being treated with each complex or DMSO (used as control). After 72 h of incubation with the complexes, 10 μL of MTT (5 mg/mL) were added and incubation was continued at 37 °C for 3 h. Inversion removed the medium and 100 μL of DMSO were added to each well. Absorbance at 560 nm, proportional to many living cells, was measured by spectrophotometry (SPECTROstar Nano, BMG LABTECH, Ortenberg, Germany) and converted into a percentage (%) of growth inhibition.
The antiproliferative effects of the mononuclear and heteropolinuclear complexes were tested on two different Caco-2 cancer cell lines (PD7 and […]). […] Caco-2 cells of both PD7 and TC7 clones were exposed to increasing concentrations of the assayed compounds through dose–response/cell viability analysis. The results in terms of the IC50 parameter (Table 4) were obtained by using the MTT protocol.

[3] = tested on: differentiated Caco-2/PD7 cells; assay: Cell viability of differentiated (enterocyte-like) Caco-2/PD7 cells; assay type: cell-based, human; settings: for Cell viability of differentiated Caco-2 cells at 2 × IC50: differentiated Caco-2/PD7, concentration = 2 × IC50, 72 h
Procedure: For cell viability studies of differentiated (enterocyte-like) cells, Caco-2/PD7 cells were seeded on 96-well plates at a density of 4 × 10^3 cells/well and incubated for approximately 10–15 days, changing the culture medium every 3 days, up to reaching confluence—the moment in which the cells were treated with the complexes at concentrations equal to their mean IC50 and 2 × IC50 values.
It is well known that the Caco-2 cell line undergoes spontaneous differentiation into enterocytic-like cells when it reaches confluency. As a result, these cells become polarised, expressing apical and basolateral surfaces with established tight junctions. This allowed for the evaluation of the cytotoxic impact of the complexes on differentiated cells (acting as noncarcinogenic) and a comparison with the viability of undifferentiated cells. Thus, the toxicity of the two heteronuclear compounds has been studied by cell viability experiments by treatment of Caco-2/PD7 cells after differentiation with complexes 1 and 2 at the corresponding concentrations equivalent to IC50 and 2 × IC50 values for 72 h. The results expressed as the % of cell viability observed after treatment with the complexes (or 100% for non-treated control cells) are summarised in Figure S16 (Supplementary Materials). […] However, the cell viability is around 90% even when the cells are treated with double the IC50 concentration.

[4] = tested on: Caco-2/TC7; assay: Intracellular ROS generation (DCFH-DA); assay type: cell-based, human; settings: IC50 concentration, monitored 3 h
Procedure: Measurement of intracellular ROS generation. The production of ROS was measured in Caco-2/TC7 seeded at a 4000 cells/well concentration in a 96-well plate, as described above. After 24 h, the culture growth medium was removed and cells were washed with PBS 1× and incubated with 20 µM DCFH-DA (Sigma-Aldrich) (100 µL/well) at 37 °C for 45 min in the dark. Afterwards, cells were washed with PBS 1× and then incubated with the tested compounds at their IC50 concentration or with 500 µM of H2O2 for the positive control. The fluorescent emission of DCF was monitored at 530 nm right after the addition of the complexes for 3 h using a microplate reader (λex = 485 nm), measuring every 15 min. The temperature was maintained at 37 °C during the experiment.
It is important to study the effect caused by ROS production upon the treatment of cells with metallic complexes, as it could indicate TrxR (thioredoxin reductase) inhibition and induction of apoptosis. Thus, the production of hydrogen peroxide in Caco-2 cells upon treatment with IC50 concentrations of complexes 1 and 2 has been studied. The method based on the H2O2-sensitive fluorescent probe DCFH-DA (2′-7′dichlorofluorescin diacetate) has been used. […]

[5] = tested on: thioredoxin reductase (TrxR); settings: undifferentiated Caco-2/TC7, IC50 concentration, 24 h incubation
Procedure: The Caco-2 cell line (TC7 clone) was seeded in a 25 cm^2 flask (2 × 10^6). […] The procedural guidelines of the supplied kit were followed. […] The outcomes were presented as a percentage representing the TrxR activity relative to the control.

T1 sequence (P02769 25-607): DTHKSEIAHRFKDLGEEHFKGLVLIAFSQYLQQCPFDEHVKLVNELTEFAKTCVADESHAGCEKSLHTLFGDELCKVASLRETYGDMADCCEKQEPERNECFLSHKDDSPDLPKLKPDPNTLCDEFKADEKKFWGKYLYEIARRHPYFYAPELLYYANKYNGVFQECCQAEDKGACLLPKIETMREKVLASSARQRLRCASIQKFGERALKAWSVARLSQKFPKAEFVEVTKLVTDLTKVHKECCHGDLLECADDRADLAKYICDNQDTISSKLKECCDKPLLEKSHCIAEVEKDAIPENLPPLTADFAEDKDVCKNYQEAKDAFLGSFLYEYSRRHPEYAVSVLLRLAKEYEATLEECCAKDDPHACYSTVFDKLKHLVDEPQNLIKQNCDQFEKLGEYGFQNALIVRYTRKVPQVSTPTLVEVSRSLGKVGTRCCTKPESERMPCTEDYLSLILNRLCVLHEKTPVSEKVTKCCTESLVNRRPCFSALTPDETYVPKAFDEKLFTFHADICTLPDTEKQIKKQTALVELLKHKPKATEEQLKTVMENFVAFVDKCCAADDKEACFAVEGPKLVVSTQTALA

Substance	Quenching / binding mode with BSA [1]	IC50 [2] [µM]	Cell viability of differentiated Caco-2 cells at 2 × IC50 [3]	Cell viability of differentiated Caco-2 cells at IC50 ([3]; differentiated Caco-2/PD7, concentration = IC50, 72 h) [%]	H2O2 / ROS formation (DCF fluorescence vs vehicle-treated cells) [4]	Effect on TrxR activity [5]
[Zn{Au(PTA)(Spy)}2](NO3)2 [compound 2]	static binding mode may be implied	1.94 ± 0.81	87.66 ± 2.85%	92.14 ± 4.22	–	–
[Cu{Au(Spy)(PTA)}2]PF6 [compound 1]	dynamic binding	0.13 ± 0.07	around 90%	–	more markedly	inhibited TrxR activity
